Earlier results on 1 molecule are cited in patent publication US20220175800A1, “DISPERSIBLE TABLET COMPOSITION” (PTC THERAPEUTICS INC., priority 2019, published 2022).

As for `CC(=O)OCC(=O)[C@@]12N=C(C)O[C@@H]1C[C@H]1[C@@H]3CCC4=CC(=O)C=C[C@]4(C)[C@H]3[C@@H](O)C[C@@]12C` [Deflazacort, (11β,16β)-21-(acetyloxy)11-hydroxy-2′-methyl-5′H-pregna-1,4-dieno[17,16-d]oxazole-3,20-dione], the Solubility in water result is recorded as “poorly soluble in water”.
